The test system of data set [1] is KMS-12-PE cells. Put plainly: Proliferation, modified MTT assay (EZ4U) on myeloma cells. It counts as cell-based. The note with it: 10 to 2.5 µM (gilteritinib 2.5 µM), 48 h. On the procedure:
(§1) Proliferation was measured using a modified MTT assay (EZ4U kit, Biomedica, Vienna, Austria) according to the manufacturer’s instructions. In brief, 2.5 × 10^4 (Molm-13)—5.0 × 10^4 cells (KMS-12-PE cells) were seeded in 96-well plates and substances were added as indicated. Different concentrations are due to the different doubling time of the cells (24 h vs. 48 h). Cells were incubated for 48 h and during the last 7 h of incubation, 3-(4,5-dimethylthiazol-2-yl)-2,5-diphenyltetrazolium bromide was added as a substrate. Reduction of the tetrazolium salt to formazan by the mitochondrial activity of the growing cells was measured as optical density at 492 nm (with 620 nm as reference) on a plate reader. Proliferation (mean +/− SD) was calculated as the percentage of control (without substances). Concentrations used were 10 µM/5 µM/2.5 µM for all substances. Gilteritinib was used as a positive control at 2.5 µM.
For orientation: Tetrazolium dyes change colour on reduction, which living cells bring about.

Data set [2] relates to KMS-12-PE cells. The data set can be described thus: Apoptosis measurement (AnnexinV/PI staining) on myeloma cells. The note with it: for viability at 12.5 µM / viability at 25 µM / viability at 50 µM / EC50: Homo sapiens, 48 h; for viability at 12.5 µM / viability at 25 µM / viability at 50 µM: read-out: % Alive (cells alive of control); for EC50: best-fit model. It counts as cell-based. On the procedure: (§2) Cytotoxicity was measured as induction of apoptosis in myeloma cell line KMS-12-PE and AML cell line Molm-13, staining the cells with AnnexinV-fluorescein isothiocyanate (AnnexinV-FITC) and propidium iodide (PI). Cell lines were purchased from DSMZ (Braunschweig, Germany) and routinely fingerprinted and tested for mycoplasma negativity. All cell lines were grown in RPMI-1640 medium (Life Technologies, Paisley, UK), and supplemented with 10% fetal calf serum (FCS; PAA, Linz, Austria), L-glutamine 100 µg/mL, and penicillin-streptomycin 100 U/mL. Compounds were dissolved in DMSO at a stock concentration of 50 mM and stored at −20 °C. Briefly, 0.5 × 10^6 cancer cells/mL were incubated for 24 h and 48 h with or without the tested compounds at indicated concentrations. Analyses were performed in duplicates and a solvent control was included. The extent of non-apoptotic cells (AnnexinV/propidium iodide negativity) was calculated as the percentage of viable cells in respect to the untreated control. Data are shown as the mean percentage of viable cells +/− standard deviation (SD) (error bars).

The target in another data set is T1, FLT3 (Homo sapiens, UniProt P36888).
T1 construct: purchased Thermo Fisher Scientific Inc. (Waltham, MA, USA)
T1 sequence (P36888 27-993): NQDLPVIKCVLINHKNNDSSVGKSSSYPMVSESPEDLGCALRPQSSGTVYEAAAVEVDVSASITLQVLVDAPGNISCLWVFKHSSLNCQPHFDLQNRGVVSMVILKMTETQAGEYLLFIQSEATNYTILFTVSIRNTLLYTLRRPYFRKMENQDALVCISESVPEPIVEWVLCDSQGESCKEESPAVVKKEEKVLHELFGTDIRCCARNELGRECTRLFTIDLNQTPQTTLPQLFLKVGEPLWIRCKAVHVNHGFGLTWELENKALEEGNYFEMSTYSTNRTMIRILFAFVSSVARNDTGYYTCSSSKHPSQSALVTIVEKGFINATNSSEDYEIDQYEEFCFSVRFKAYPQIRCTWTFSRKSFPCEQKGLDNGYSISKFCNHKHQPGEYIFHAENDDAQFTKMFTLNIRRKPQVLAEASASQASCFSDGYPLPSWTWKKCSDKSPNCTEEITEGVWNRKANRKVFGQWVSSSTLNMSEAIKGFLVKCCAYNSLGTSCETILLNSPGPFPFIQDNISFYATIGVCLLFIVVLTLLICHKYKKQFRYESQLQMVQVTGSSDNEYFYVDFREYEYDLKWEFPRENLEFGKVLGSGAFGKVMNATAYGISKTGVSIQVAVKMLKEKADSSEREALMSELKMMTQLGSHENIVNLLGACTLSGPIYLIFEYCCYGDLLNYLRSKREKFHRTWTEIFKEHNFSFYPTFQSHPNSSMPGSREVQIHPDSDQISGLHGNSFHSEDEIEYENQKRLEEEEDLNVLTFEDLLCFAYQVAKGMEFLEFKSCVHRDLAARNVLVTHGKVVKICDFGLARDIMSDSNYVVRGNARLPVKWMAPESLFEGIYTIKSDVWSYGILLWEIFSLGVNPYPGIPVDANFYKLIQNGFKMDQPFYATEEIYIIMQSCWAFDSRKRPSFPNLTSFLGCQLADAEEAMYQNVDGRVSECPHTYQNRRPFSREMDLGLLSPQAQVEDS
Put plainly: FLT3 kinase assay (Z'-LYTE). The conditions noted are these: 6.25 nM (lowest concentration), 20 ng FLT3 protein. It counts as biochemical. How it is done: FLT3 inhibitory activity of compounds 1 and 3 was determined using the Z’-LYTE screening protocol. Z’-LYTE Kinase Assay—Tyrosine 2 Peptide Kit and FLT3 were purchased from Thermo Fisher Scientific Inc. (Waltham, MA, USA). The assay was performed according to the manufacturer’s instructions using a kinase buffer (50 mM HEPES pH 7.5, 0.01% BRIJ-35, 10 mM MgCl2, 1 mM EGTA) containing 0.01 to 20 ng of FLT3. Compounds were measured at concentrations of 50 nM/25 nM/12.5 nM/6.25 nM using gilteritinib as a positive control.

The test system of data set [3] is Molm-13 cells. The data set can be described thus: Apoptosis measurement (AnnexinV/PI staining) on AML cells. The conditions noted are these: for EC50: best-fit model; for viability at 12.5 µM: Molm-13, 12.5 µM; for viability at 12.5 µM / viability at 25 µM / viability at 50 µM: 48 h, read-out: % Alive (cells alive of control); for viability at 25 µM: Molm-13, 25 µM; for viability at 50 µM: Molm-13, 50 µM. It counts as cell-based. On the procedure: as §2

Data set [4] has as its system Molm-13 cells. The data set can be described thus: Proliferation, modified MTT assay (EZ4U) on AML cells. It counts as cell-based. The conditions noted are these: 48 h, compared to untreated cells; for inhibition at 2.5 µM: Homo sapiens, Molm-13, 2.5 µM. On the procedure:
as §1

Each structure is given as a SMILES string. Where only a bound is given, the exact number is not on record here.

As a reminder, the EC50 is the concentration needed to bring the measured effect to its halfway point. A high value points to weaker potency. One may read the inhibition as the change of the read-out against control, counted positive when it falls. Low values mean a weak effect, high ones a strong effect.

For `COc1c(OC)c(O)c2c(=O)cc(-c3ccc(O)cc3)oc2c1OC` [Compound 3, xanthomicrol], the “Inhibition of proliferation (in words)” value in the data set with KMS-12-PE cells [1] is “marginally”. For the same compound, in the data set with KMS-12-PE cells [2], the viability at 12.5 µM was 69.5 ± 16%, the viability at 25 µM came to 62.6 ± 13.1%, the viability at 50 µM was determined as 55.4 ± 13.1% and the EC50 was determined as 45.4 µM. At FLT3, testing at 0.00625 µM gave an inhibition of 88%. The compound also showed a concentration for a half-maximal effect (EC50) in the data set on Molm-13 cells [3] (Homo sapiens, MOLM-13, 48 h) of around 28 µM. In the data set on Molm-13 cells [3] (Homo sapiens), the viability at 12.5 µM was determined as 56.4 ± 9.1%, the viability at 25 µM amounted to 53.5 ± 1% and the viability at 50 µM was found to be 47 ± 2.7%. The compound also gave an EC50 in the data set with Molm-13 cells [3] (Molm-13, 48 h) of 28 µM. In the data set with Molm-13 cells [4], the inhibition at 2.5 µM was determined as 84%. The Inhibition of proliferation result in the data set on Molm-13 cells [4] (Molm-13, concentrations from 10 to 2.5 µM) is listed as “up to 93%”.

As for `COc1cc2oc(-c3ccc(O)cc3)cc(=O)c2c(O)c1OC` [Compound 1, cirsimaritin], the “Inhibition of proliferation (in words)” value in the data set with KMS-12-PE cells [1] was “marginally”. Further, the “Cytotoxic effect / induction of apoptosis (in words)” value is “induced apoptosis” with KMS-12-PE cells [2] (12.5-50 µM) and “induced apoptosis” with Molm-13 cells [3] (Molm-13, 12.5-50 µM). The values for the viability at 12.5 µM with KMS-12-PE cells [2] and in the data set on Molm-13 cells [3] (Homo sapiens) were 86.8 ± 14.5% and 77.3 ± 9%, respectively. Further, the viability at 25 µM amounted to 76.6 ± 25.6% with KMS-12-PE cells [2] and 48.4 ± 12% in the data set with Molm-13 cells [3] (Homo sapiens). The viability at 50 µM is 58.9 ± 28.6% in the data set with KMS-12-PE cells [2] and 12.9 ± 4.1% in the data set with Molm-13 cells [3] (Homo sapiens). Further, the EC50 in the data set on KMS-12-PE cells [2] was above 50 µM; with Molm-13 cells [3] (Homo sapiens, MOLM-13, 48 h), around 22 µM; with Molm-13 cells [3] (Molm-13, 48 h), 21.7 µM. Also, the inhibition at 0.00625 µM against FLT3 is 81%. In the data set on Molm-13 cells [4], the inhibition at 2.5 µM was determined as 72%.
